The values below are quoted from earlier work in US20160280572A1, “POLYMERS FOR FLOCCULATION, DEWATERING AND CONSOLIDATION OF OIL SANDS FLUID FINE TAILINGS, MINE TAILINGS AND SOLID PARTICULATE SUSPENSIONS” (THE GOVERNORS OF THE UNIVERSITY OF ALBERTA, priority 2015, published 2016).

≈ marks a conversion by molar mass, not a printed value. Read-outs that look alike come from different tables or passages of the source.

For this data set the following is noted: in water.

Take `C=C(C)C(=O)OCCCC` [butyl methacrylate]: for the setting “temperature Not Listed”, the Solubility (in general, the dissolved amount per volume that the medium holds) is 6 mg/mL (≈ 42.2 mM). With `C=C(C)C(=O)OC` [methyl methacrylate], the Solubility (20 Celsius) is 16 mg/mL (≈ 160 mM). As to `C=CC(=O)OC` [methyl acrylate], the Solubility (20 Celsius) was 60 mg/mL (≈ 697 mM). For `C=CC#N` [Acrylonitrile], the Solubility (20 Celsius) was 70 mg/mL (≈ 1320 mM).

As for `C=COC(C)=O` [vinyl acetate], the Solubility (20 Celsius) was 25 mg/mL.

As to `C=Cc1ccccc1` [styrene], the Solubility (20 Celsius) was 0.3 mg/mL (≈ 2.88 mM). On to `C=C(C)C(N)=O` [Methacrylamide], for which the Solubility (20 Celsius) is 202 mg/mL (≈ 2370 mM).
